Data on two compounds can be found in US20100184770A1, “COMPOUNDS” (Glaxo Group Limited, priority 2006, published 2010).

In one assay the target is T1, human H1 receptor (Homo sapiens, UniProt P35367).
T1 construct: expressed in transfected cells
The assay can be described thus: Histamine H1 functional antagonist assay: determination of antagonist pA2 (FLIPR). Type of assay: cell-based. On the procedure: 1. Generation of Histamine H1 Cell Line The human H1 receptor is cloned using known procedures described in the literature [Biochem. Biophys. Res. Commun., 201(2):894 (1994)]. Chinese hamster ovary (CHO) cells stably expressing the human H1 receptor are generated according to known procedures described in the literature [Br. J. Pharmacol., 117(6):1071 (1996)].
The histamine H1 receptor expressing CHO cells are seeded into non-coated black-walled clear bottom 96-well tissue culture plates as described above. […]
The plates are then placed into a FLIPR™ (Molecular Devices, UK) to monitor cell fluorescence (λex=488 nm, λEM=540 nm) in the manner described in Sullivan et al., (In: Lambert D G (ed.), Calcium Signaling Protocols, New Jersey: Humana Press, 1999, 125-136) before and after the addition of 50 μl histamine over a concentration range of 1 mM 0.1 nM. […] The antagonist pA2 is calculated using the following standard equation: pA2=log(DR-1)−log [B] where DR=dose ratio, defined as EC50 antagonist-treated/EC50 control and [B]=concentration of antagonist.

Another assay concerns the target T2, histamine H3 receptor (Homo sapiens, UniProt Q9Y5N1).
T2 construct: expressed in transfected cells; host or cells: CHO K1 cells with pSwitch/pGene (GeneSwitch), clone 3H3, mifepristone-induced; membranes
The assay can be described thus: Histamine H3 functional antagonist assay ([35S]-GTPγS, membranes). The class given is biochemical. As to conditions: histamine at EC80, read-out: average pKi (pKb) at H3 (converted). On the procedure: The histamine H3 cDNA is isolated from its holding vector, pcDNA3.1 TOPO (InVitrogen), by restriction digestion of plasmid DNA with the enzymes BamH1 and Not-1 and is ligated into the inducible expression vector pGene (InVitrogen) digested with the same enzymes. The GeneSwitch™ system (a system where in transgene expression is switched off in the absence of an inducer and switched on in the presence of an inducer) is performed as described in U.S. Pat. Nos. 5,364,791; 5,874,534; and 5,935,934. Ligated DNA is transformed into competent DH5α E. coli host bacterial cells and is plated onto Luria Broth (LB) agar containing Zeocin™ (an antibiotic which allows the selection of cells expressing the sh ble gene which is present on pGene and pSwitch) at 50 μgml^−1. Colonies containing the re-ligated plasmid are identified by restriction analysis. […]
10-14 days post selection, 10 nM Mifepristone (InVitrogen) is added to the culture medium to induce the expression of the receptor. […] Receptor bound antibody is detected by incubation of the cells for 60 min on ice with a goat anti rabbit antibody, conjugated with Alexa 488 fluorescence marker (Molecular Probes). Following two further washes with Sorting Medium, cells are filtered through a […] Filcon™ (BD Biosciences) and then are analysed on a FACS Vantage SE Flow Cytometer fitted with an Automatic Cell Deposition Unit. […]

T2 sequence (Q9Y5N1 whole entry, species assumed): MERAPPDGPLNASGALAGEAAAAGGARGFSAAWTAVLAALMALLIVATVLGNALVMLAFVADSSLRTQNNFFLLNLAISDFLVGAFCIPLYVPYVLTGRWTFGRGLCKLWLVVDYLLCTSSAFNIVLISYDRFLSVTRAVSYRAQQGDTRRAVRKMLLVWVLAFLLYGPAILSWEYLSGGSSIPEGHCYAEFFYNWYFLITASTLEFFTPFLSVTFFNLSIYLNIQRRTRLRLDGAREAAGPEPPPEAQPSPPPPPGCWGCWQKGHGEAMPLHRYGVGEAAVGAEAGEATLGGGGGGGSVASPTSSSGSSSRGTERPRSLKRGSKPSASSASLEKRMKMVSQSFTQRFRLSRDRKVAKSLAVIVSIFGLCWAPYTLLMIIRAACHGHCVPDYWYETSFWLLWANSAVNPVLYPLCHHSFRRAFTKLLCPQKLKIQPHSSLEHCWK
T1 sequence (P35367 whole entry): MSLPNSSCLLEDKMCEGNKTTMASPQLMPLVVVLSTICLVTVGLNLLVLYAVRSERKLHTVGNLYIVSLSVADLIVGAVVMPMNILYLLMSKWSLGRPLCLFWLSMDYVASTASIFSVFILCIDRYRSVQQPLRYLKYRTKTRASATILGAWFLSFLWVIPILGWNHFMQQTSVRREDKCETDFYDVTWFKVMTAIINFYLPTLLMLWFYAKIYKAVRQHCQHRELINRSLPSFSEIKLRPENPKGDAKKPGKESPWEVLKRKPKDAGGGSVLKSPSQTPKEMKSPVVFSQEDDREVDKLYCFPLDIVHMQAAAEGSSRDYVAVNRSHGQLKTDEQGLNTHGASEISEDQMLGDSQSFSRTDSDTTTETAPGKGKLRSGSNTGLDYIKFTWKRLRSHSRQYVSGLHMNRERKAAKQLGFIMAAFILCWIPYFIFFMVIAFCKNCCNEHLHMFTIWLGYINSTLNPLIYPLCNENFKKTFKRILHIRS

For the compound `COCCC(=O)NCCN1CCC[C@@H]1Cn1nc(Cc2ccc(Cl)cc2)c2ccccc2c1=O.O=CO` [Example 35, N-[2-((2R)-2-{[4-[(4-Chlorophenyl)methyl]-1-oxo-2(1H)-phthalazinyl]methyl}-1-pyrrolidinyl)ethyl]-3-(methyloxy)propanamide, formate salt], the Kb at human H1 receptor was < 10 nM. For the same compound, the Ki on histamine H3 receptor is > 316 nM.
Take `Cl.O=C(CC(F)(F)F)NCCN1CCC[C@@H]1Cn1nc(Cc2ccc(Cl)cc2)c2ccccc2c1=O` [Example 36a, N-[2-((2R)-2-{[4-[(4-Chlorophenyl)methyl]-1-oxo-2(1H)-phthalazinyl]methyl}-1-pyrrolidinyl)ethyl]-3,3,3-trifluoropropanamide, hydrochloride]: the Kb at human H1 receptor is < 10 nM. Moreover, the Ki at histamine H3 receptor was > 316 nM.
